Drawing on patent US20250368651A1 (priority 2022, published 2025), this text covers CC50 and Kd for 1 compound.

The structures appear in SMILES notation. Bounds are passed on as bounds.

Series [1] in a line: in vitro. The note with it: human.
Series [2] deals with DNA Seq8 (UGAAGGAAGUU as deoxyribonucleotides). Nature of the series: FP binding assay, DNA Seq8. Conditions: Seq 8; 0.5 μM SMN-C2. The procedure: (§1) All synthetic DNA and RNA oligomers were purchased from Integrated DNA Technologies and reconstituted in nuclease-free water (Invitrogen #AM9932) at 1 mM. The concentration of the oligonucleotides at ˜0.1 mM was calibrated with the A260 value measured by a NanoDrop ND-1000 (Thermo, Waltham, MA, USA) and the predicted extinction coefficient (http://www.oligoevaluator.com) using Lamber-Beer's Law. The risdiplam analogues (1 mM in DMSO) were diluted in 2× assay buffer (40 mM HEPES, 200 mM NaCl for RNA; 40 mM HEPES, 200 mM NaCl, 1 mM MgCl2 for DNA) to make a 1 μM 2× working solution.
(§2) A 1:2 dilution series (8 points) of each oligonucleotide was prepared in 20-30 μL water to desired concentrations (i.e., 1-128 μM). […] For fluorescence polarization measurement, 20 μL of the above 1× working solution was transferred into a 384-well, black, F-bottom microplates (Greiner Bio-One) in duplicates or triplicates. The plate was equilibrated at room temperature for 5 min before being read using a microplate reader (SYNERGY H1, BioTek; Excitation/Emission=360/460 nm) at 25° C. […] The mixture was then transferred into a microplate (20 μL each well) in duplicates for fluorescence polarization readout. The experimental data were analyzed using Prism 8 software (Graphpad Software, San Diego, CA, USA).

The target of series [3] is DNA S27 d([…]). Nature of the series: FP binding assay, 10-nt DNA S27. The procedure: as §1, §2
Series [4] concerns the target DNA S17 […]. Nature of the series: FP binding assay, 18-nt DNA S17. The procedure:
as §1, §2

In series [5] the target is DNA S26 d(TGAAGGAAGG). Nature of the series: FP binding assay, 10-nt DNA S26. The procedure:
as §1, §2

Series [6] has as its target RNA Seq10 UAAAGGAAGGU
Nature of the series: FP binding assay, RNA Seq10. The note with it: Seq 10 UAAAGGAAGGU; 0.5 μM SMN-C2. The procedure: as §1, §2

Series [7] addresses DNA S9 […]. Nature of the series: FP binding assay, 18-nt DNA S9. The procedure:
as §1, §2

Series [8] has as its target DNA S2 […]. Nature of the series: FP binding assay, 18-nt DNA S2. The procedure:
as §1, §2

Series [9] addresses 5′-biotinylated RNA Seq4. Nature of the series: Surface plasmon resonance (SPR) assay, RNA Seq4. In kind it is binding. Conditions: footnote b: SPR assay for RNA Seq4. The procedure:
SPR experiments were performed on a Biacore T200 (GE Healthcare) instrument at 25° C. using streptavidin pre-coated SA sensor chips (GE Healthcare). The running buffer composed of 10 mM HEPES, 100 mM NaCl, 0.05% Tween 20 (w/v), 5 mM EDTA, 0.1% (v/v) DMSO at pH 6.8 was prepared freshly, filtered through the […] PVDF membrane prior to use. 5′-biotinylated RNA Seq4 was purchased from GenScript and dissolved in nuclease-free water to a concentration of 100 μM. For immobilization of the biotinylated RNA, the sensor chip was firstly conditioned with 3 consecutive 1 min injections of high salt solution (50 mM NaOH, 1M NaCl) at a flow rate of […]. Next, the biotinylated RNA was diluted 1000× in running buffer (100 nM) and applied over the streptavidin sensor chip surface at a flow rate of 10 μL/min to achieve immobilization level of about 800 RU. Finally, alkyne-PEG-biotin (50 μM in running buffer) was injected (1 min, […]) to block remaining streptavidin surface binding sites. The kinetics analysis was performed following the BiaControl Software Wizard Kinetics protocol. […] All monitored resonance signals were subtracted with signals from a non-binding reference channel. Kinetic values (Kd, ka, kd) were calculated using the BiaEvaluation Software Binding Affinity protocol with 1:1 fitting. […]
A general note: SPR reads the build-up and loss of mass on a sensor chip optically.

The target in series [10] is DNA S7 […]. Nature of the series: FP binding assay, 18-nt DNA S7. The procedure: as §1, §2
Series [11] has as its target DNA Seq11 TGGAGGAAGGT
Nature of the series: FP binding assay, DNA Seq11. The note with it: Seq 11 TGGAGGAAGGT; 0.5 μM SMN-C2. The procedure:
as §1, §2

Series [12] deals with DNA S4 […]. Nature of the series: FP binding assay, 18-nt DNA S4. The procedure:
as §1, §2

Series [13] deals with DNA S23 […]. Nature of the series: FP binding assay, 18-nt DNA S23. The procedure:
as §1, §2

Series [14] addresses DNA Seq7 (UUAAGGAAGGU as deoxyribonucleotides). Nature of the series: FP binding assay, DNA Seq7. The note with it: Seq 7; 0.5 μM SMN-C2. The procedure:
as §1, §2

Series [15] has as its target DNA Seq2 d(GAAGGAAGG). Nature of the series: FP binding assay, 9-nt DNA Seq2. The procedure: as §1, §2
The target of series [16] is RNA Seq8 UGAAGGAAGUU
Nature of the series: FP binding assay, RNA Seq8. Conditions: Seq 8 UGAAGGAAGUU; 0.5 μM SMN-C2. The procedure: as §1, §2

Series [17] deals with COVID RNA (SARS-CoV-2 RNA SL5 per FIG. 8). Nature of the series: FP binding, Kd for COVID RNA. The note with it: Table 3.
For series [18], the target named is RNA Seq4 […]. Nature of the series: FP binding assay, RNA Seq4. The procedure:
as §1
A 1:2 dilution series (8 points) of each oligonucleotide was prepared in 20-30 μL water to desired concentrations (i.e., 1-128 μM). 20-30 μL 2× working solution containing the 2× assay buffer and the small-molecule ligand was added to each oligonucleotide sample in 1:1 (v/v) and mixed by pipetting for 4 times. For fluorescence polarization measurement, 20 μL of the above 1× working solution was transferred into a 384-well, black, F-bottom microplates (Greiner Bio-One) in duplicates or triplicates. The plate was equilibrated at room temperature for 5 min before being read using a microplate reader (SYNERGY H1, BioTek; Excitation/Emission=360/460 nm) at 25° C. For compound SMN-C5, a competitive binding assay was employed to measure an apparent Kd. SMN-C5 was 1:2 serial diluted for 10 concentration points starting at 750 μM in DMSO. A mixture of SMN-C2 (0.5 μM) and DNA Seq6 (25 μM) in 1× assay buffer was prepared and incubated at room temperature for 10 minutes. 3 μL of SMN-C5 solution at each concentration was added to a 42 μL SMN-C2/DNA Seq6 mixture and incubated at room temperature for 10 minutes. The mixture was then transferred into a microplate (20 μL each well) in duplicates for fluorescence polarization readout. The experimental data were analyzed using Prism 8 software (Graphpad Software, San Diego, CA, USA).

The target of series [19] is DNA S22 […]. Nature of the series: FP binding assay, 18-nt DNA S22. The procedure: as §1, §2
In series [20] the target is DNA S24 […]. Nature of the series: FP binding assay, 18-nt DNA S24. The procedure: as §1, §2

`CCN1CCN(c2ccc3cc(-c4cn5cc(C)nc(C)c5n4)c(=O)oc3c2)C[C@@H]1C` [SMN-C2, (S)-3-(6,8-dimethylimidazo[1,2-a]pyrazin-2-yl)-7-(4-ethyl-3-methylpiperazin-1-yl)-2H-chromen-2-one] registered a CC50 in [1] greater than 30 µM. Besides, the Kd (as a rule, the equilibrium constant for the complex coming apart) in [2] is 14.7 ± 0.7 µM; in [3], 11.6 ± 1.7 µM; in series [4], 16.5 ± 1.1 µM; in series [5], 6.2 ± 1 µM; in [6], greater than 100 µM; in [7] it was 56.2 ± 13.9 µM. The equilibrium dissociation constant (Kd) in series [8] is 20.2 ± 1.7 µM; in [9], 5.4 µM; in series [10], 17.3 ± 1.7 µM; in [11], 57.3 ± 20 µM; in series [12], greater than 50 µM; in series [13], greater than 50 µM. Moreover, the Kd in [14] was greater than 100 µM; in series [15], 34.3 ± 9.6 µM; in [16], greater than 100 µM; in series [17] it was 1.6 ± 0.4 µM; in series [18], 21.7 ± 4.3 µM; in series [19], 44.7 ± 7.2 µM. The Kd in series [20] worked out at 36.8 ± 11.4 µM.
